Paper PMC4598023 (PLoS ONE, 2015)
Bridges are numbered along the chain shown (N, C = ends). Where no end group is shown, it is not given here.

Assays:
[1] = Amylin aggregation by ThT fluorescence, up to 7 days in PBS pH 7.4; format: physicochemical; settings: PBS pH 7.4, 25°C, followed up to 7 days
Method: In this case, at the indicated time 160 μL sample were mixed with 40 μL ThT 100 μM. In both cases the thioflavin T fluorescence was measured by setting excitation at 450 nm and emission at 482 nm. […] The aggregation curves were fitted using a 4 parameter logistic function and the t1/2, elongation rate and lag time were estimated as described elsewhere.
Scale bar = 200 nm. The raw data can be found in S2 File.

[2] = tested on: MCF–7 cells; test: cAMP production in MCF–7 cells following stimulation with amylin and PEGylated amylin; format: cell-based, human; settings: for cAMP: 37°C
Method: The assay was conducted by the CRO Eurofins | Cerep Panlabs, using the cAMP HiRange assay kit (Cisbio, 62AM6PE). According to the company, the assay was performed in 96 well half area plates, in a total reaction volume of 20 μl/well, with a total of 3.000 cells in suspension (after optimization for optimal seeding density and format: adherent or suspension), freshly thawed. Cells were incubated at 37°C in a humidified atmosphere with 5% (v/v) CO2. […] Following the incubation, cells were lysed and the cAMP quantified by using the cAMP HiRange assay kit (Cisbio, 62AM6PE) according to the manufacturer instructions. […] After 60 minutes incubation at room temperature, fluorescence was measured (excitation at 337 nm, emission at 620 vs. 665 nm), and the cAMP concentration was determined by dividing the signal at 665 nm by that at 620 nm and comparing with the cAMP calibration curve. Buffer was used as negative control and the results were corrected accordingly. Results are expressed as mean ± standard error (n = 2) of the resulting cAMP concentrations in nM. EC50 values for the agonist-induced cAMP production was calculated by adjusting data with a logist 4 parameter function (with SigmaPlot, Jandel Sci).
MCF–7 cells endogenously express human amylin receptor CTR1 and CTR2 [72, 73]. Stimulation of the receptor with amylin results in the production of cAMP (Fig 5).

[3] = Amylin aggregation kinetics by ThT fluorescence, up to 12 h at varying pH; format: physicochemical; settings: 50 μM peptide, 10 mM buffer, 20 μM ThT, 2% DMSO, 25°C
Method: In this case, at the indicated time 160 μL sample were mixed with 40 μL ThT 100 μM. In both cases the thioflavin T fluorescence was measured by setting excitation at 450 nm and emission at 482 nm. […] The aggregation curves were fitted using a 4 parameter logistic function and the t1/2, elongation rate and lag time were estimated as described elsewhere [65].

[4] = biological target: T1, human receptor-activity modifying protein 3 Extracellular Topological Domain (RAMP3-ETD), fluorescein-labelled (Homo sapiens, UniProt O60896); test: Isothermal binding assay, fluorescence anisotropy, RAMP-3; settings: for Anisotropy: 50 nM labelled RAMP-3, PBS pH 7.4, 25°C, mean of five measurements
T1 construct: RAMP3-ETD; residues 28–117; UNIPROT identifier O60896; His tag (N); thrombin cleavage site (N); made in house; host or cells: E. coli BL21DE3pLys
T1 sequence (O60896 28-117): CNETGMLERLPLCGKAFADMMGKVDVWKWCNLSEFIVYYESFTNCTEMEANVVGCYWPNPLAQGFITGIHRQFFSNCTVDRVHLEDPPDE
From the text: The human receptor-activity modifying protein 3 Extracellular Topological Domain (RAMP3-ETD; residues 28–117; UNIPROT identifier O60896; Sequence in S1 File) was obtained by heterologous production in E. coli and further purified from inclusion bodies. The synthetic DNA sequence encoding the RAMP3-ETD of RAMP3 was cloned into bacterial protein expression vector pET28b (Novagen/EMD Millipore) from the synthetic gene using NdeI and EcoRI. The sequence and identity of the gene in the pET28b-RAMP3 construct was confirmed with DNA sequencing. The gene synthesis, cloning and sequencing services were provided by GenScript Corporation (Piscataway, NJ, USA).
RAMP3 was produced and purified as described previously for the homologous protein RAMP2 [56]. The RAMP3-ETD was produced as a fusion protein containing an N-terminal histidine tag and a thrombin protease cleavage site, by heterologous expression in E. coli BL21DE3pLys (1 mM IPTG, 37°C, 3 h). […] The purified RAMP3-ETD was refolded by rapid dilution into cold buffer 50 mM sodium phosphate buffer (pH 8.3) containing 1 M arginine hydrochloride, 5 mM reduced glutathione, 1 mM oxidized glutathione, and 1 mM EDTA and left stand for 24 h at 4°C. After refolding, RAMP3-ETD was dialyzed, concentrated in AMICON (Millipore, Brazil), and stored in 20 mM sodium phosphate buffer and 500 mM NaCl, pH 7.0, in liquid nitrogen until use. Purity was over 95% as judged by SDS-PAGE, routine size-exclusion chomatography and MALDI-ToF-MS. The purified RAMP3 was quantified by absorbance at 280 nm, using 21,345 M^-1cm^−1 as extinction coefficient.
The proteins (CTR, RAMP and murine amylin) were labeled with fluorescein isothiocyanate (FITC; Sigma-Aldrich; 0.2 mM final concentration, from stock in DMSO at 5 mM freshly prepared) in 20 mM Na2HPO4, 300 mM NaCl, pH 7.0, for 60 min at 25°C protected from light. The reaction was quenched by adding an excess of Tris-HCl. The free fluorescein was removed by chromatography with a Sephadex G25 desalting column (GE Healthcare, Brazil). The labeling efficiency, final yield and protein quantification were calculated as described elsewhere. The labeling efficiency was below 1 mol FITC:1 mol protein for all labeling procedures. Labeled proteins were stored until use protected from light at -20°C for no longer than 3 months.
The fluorescence measurements were conducted in a Spectramax M5 (Molecular Devices) microplate reader, with excitation and emission set at 480 nm and 520 nm respectively, with cut-off filter 515 nm. The results represent the mean and the standard error of the mean (SEM) of five measurements. Binding data analysis was performed with SigmaPlot 12.5 (Systat Software, Inc., CA, USA).
Fig 4 Amylin self-assembly and interaction with co-receptors. […] Assays were conducted in PBS, pH 7.4, 25°C, in the presence of 50 nM FITC-labelled proteins (amylin, CTR–1 or RAMP–3). Ex 480 nm, Em 520 nm, filter 515 nm. The raw data can be found in S2 File.

Substance: PEGylated human amylin: human amylin monoconjugated at the N-terminal Lys1 region with 5 kDa methoxyl polyethylene glycol succinimidyl carbonate (mPEGsc5k) (KCNTATCATQRLANFLVHSSNNFGAILSSTNVGSNTY-NH2; disulfide 2-7; also: one mPEG 5 kDa (mPEGsc5k) on a Lys1 amino group)
- changes in ThT fluorescence up to 7 days [1]: only minor changes in ThT fluorescence
- cAMP ([2]; 1.00E-05 Molar, replicate 1, 30 min): 53.95 nM
- cAMP ([2]; 1.00E-05 Molar, replicate 2, 30 min): 47.73 nM
- cAMP ([2]; 1.00E-06 Molar, replicate 1, 30 min): 47.85 nM
- cAMP ([2]; 1.00E-06 Molar, replicate 2, 30 min): 54.26 nM
- cAMP ([2]; 1.00E-07 Molar, replicate 1, 30 min): 38.3 nM
- cAMP ([2]; 1.00E-07 Molar, replicate 2, 30 min): 36.06 nM
- cAMP ([2]; 1.00E-08 Molar, replicate 1, 30 min): 17.13 nM
- cAMP ([2]; 1.00E-08 Molar, replicate 2, 30 min): 22.08 nM
- cAMP ([2]; 1.00E-09 Molar, replicate 1, 30 min): 5.54 nM
- cAMP ([2]; 1.00E-09 Molar, replicate 2, 30 min): 6.29 nM
- cAMP ([2]; 1.00E-10 Molar, replicate 1, 30 min): 3.86 nM
- cAMP ([2]; 1.00E-10 Molar, replicate 2, 30 min): 4.59 nM
- cAMP ([2]; 1.00E-11 Molar, replicate 1, 30 min): 4.14 nM
- cAMP ([2]; 1.00E-11 Molar, replicate 2, 30 min): 3.71 nM
- cAMP ([2]; 1.00E-12 Molar, replicate 1, 30 min): 4.83 nM
- cAMP ([2]; 1.00E-12 Molar, replicate 2, 30 min): 5.61 nM
- EC50 ([2]; 30 min 37°C, HBSS/HEPES pH 7.4, 500 μM IBMX, cAMP HiRange kit, 4 parameter logistic fit, n = 2, done by CRO): 30.8 ± 6.7 nM
- changes in ThT fluorescence in the 12 h time window [3]: did not observe changes in fluorescence
- binding to coreceptor RAMP3 (in words) ([4]; fluorescence anisotropy, PBS pH 7.4, 25°C, 50 nM FITC-labelled protein): PEGylation did not abolish the assembly
- Anisotropy ([4]; ligand 0.0492 µM): 0.0481
- Anisotropy ([4]; ligand 0.1229 µM): 0.0421
- Anisotropy ([4]; ligand 0.3072 µM): 0.0449
- Anisotropy ([4]; ligand 0.768 µM): 0.0486
- Anisotropy ([4]; ligand 1.92 µM): 0.0614
- Anisotropy ([4]; ligand 4.8 µM): 0.1188
- Anisotropy ([4]; ligand 12 µM): 0.2199
- Anisotropy ([4]; ligand 30 µM): 0.1286
